From US20230340011A1 (Asteroid Therapeutics, priority 2022, published 2023)

Each compound was assayed against SREBP-2 (Homo sapiens (Human), UniProt Q12772) (assay: In vitro assay SREBP-2: PathHunter U2OS SREBP-2 Nuclear Translocation Cell Line, U18666A-stimulated). Conditions: PathHunter U2OS SREBP-2 nuclear translocation cells, U18666A 10 μM, overnight (16 hours).
Assay type: cell-based
With C[C@H](CCC(=O)N1CCC(O)(c2ccncc2)CC1)[C@H]1CC[C@H]2[C@@H]3CC=C4C[C@@H](O)CC[C@]4(C)[C@H]3CC[C@]12C [Example 344, (R)-4-((3S,8S,9S,10R,13R,14S,17R)-3-hydroxy-10,13-dimethyl-2,3,4,7,8,9,10,11,12,13,14,15,16,17-tetradecahydro-1H-cyclopenta[a]phenanthren-17-yl)-1-(4-hydroxy-4-(pyridin-4-yl)piperidin-1-yl)pentan-1-one] the IC50 was < 250 nM.
C[C@H](CCC(=O)N1CCC([C@H](O)C(F)(F)F)CC1)[C@H]1CC[C@H]2[C@@H]3CC=C4C[C@@H](O)CC[C@]4(C)[C@H]3CC[C@]12C [Example 468, (4R)-4-[(1R,3aS,3bS,7S,9aR,9bS,11aR)-7-hydroxy-9a,11a-dimethyl-1H,2H,3H,3aH,3bH,4H,6H,7H,8H,9H,9aH,9bH,10H,11H,11aH-cyclopenta[a]phenanthren-1-yl]-1-{4-[(1 S)-2,2,2-trifluoro-1-hydroxyethyl]piperidin-1-yl}pentan-1-one] was tested, and the IC50 was < 250 nM.
In the case of COc1cccnc1CC[C@@H](C)[C@H]1CC[C@H]2[C@@H]3CC=C4C[C@@H](O)CC[C@]4(C)[C@H]3CC[C@]12C [Example 186, (1R,3aS,3bS,7S,9aR,9bS,11aR)-1-[(2R)-4-(3-methoxypyridin-2-yl)butan-2-yl]-9a,11a-dimethyl-1H,2H,3H,3aH,3bH,4H,6H,7H,8H,9H,9aH,9bH,10H,11H,11aH-cyclopenta[a]phenanthren-7-ol], the IC50 is reported as < 250 nM.
Compound COC(=O)NC[C@@H](C)[C@H]1CC[C@H]2[C@@H]3CC=C4C[C@@H](O)CC[C@]4(C)[C@H]3CC[C@]12C [Example 240, Methyl ((S)-2-((3S,8S,9S,10R,13S,14S,17R)-3-hydroxy-10,13-dimethyl-2,3,4,7,8,9,10,11,12,13,14,15,16,17-tetradecahydro-1H-cyclopenta[a]phenanthren-17-yl)propyl)carbamate] has an IC50 of 250 to 1000 nM.
With C[C@H](OCC(=O)N1CCC(C)(CO)CC1)[C@H]1CC[C@H]2[C@@H]3CC=C4C[C@@H](O)CC[C@]4(C)[C@H]3CC[C@]12C [Example 366, 2-((S)-1-((3S,8S,9S,10R,13S,14S,17S)-3-hydroxy-10,13-dimethyl-2,3,4,7,8,9,10,11,12,13,14,15,16,17-tetradecahydro-1H-cyclopenta[a]phenanthren-17-yl)ethoxy)-1-(4-(hydroxymethyl)-4-methylpiperidin-1-yl)ethan-1-one] the IC50 was 250 to 1000 nM.
With C[C@H](CCC(=O)N1CCC(O)(CC(F)(F)F)CC1)[C@H]1CC[C@H]2[C@@H]3CC=C4C[C@@H](O)CC[C@]4(C)[C@H]3CC[C@]12C [Example 152, (R)-4-((3S,8S,9S,10R,13R,14S,17R)-3-hydroxy-10,13-dimethyl-2,3,4,7,8,9,10,11,12,13,14,15,16,17-tetradecahydro-1H-cyclopenta[a]phenanthren-17-yl)-1-(4-hydroxy-4-(2,2,2-trifluoroethyl)piperidin-1-yl) pentan-1-one] the IC50 was < 250 nM.
Work on C[C@H](COc1ccc(CO)cn1)[C@H]1CC[C@H]2[C@@H]3CC=C4C[C@@H](O)CC[C@]4(C)[C@H]3CC[C@]12C [Example 259, (3S,8S,9S,10R,13S,14S,17R)-17-((S)-1-((5-(hydroxymethyl)pyridin-2-yl)oxy)propan-2-yl)-10,13-dimethyl-2,3,4,7,8,9,10,11,12,13,14,15,16,17-tetradecahydro-1H-cyclopenta[a]phenanthren-3-ol] yielded an IC50 of 250 to 1000 nM.
With C[C@H](COc1cc(CO)ccn1)[C@H]1CC[C@H]2[C@@H]3CC=C4C[C@@H](O)CC[C@]4(C)[C@H]3CC[C@]12C [Example 446, (3S,8S,9S,10R,13S,14S,17R)-17-((S)-1-((4-(hydroxymethyl)pyridin-2-yl)oxy)propan-2-yl)-10,13-dimethyl-2,3,4,7,8,9,10,11,12,13,14,15,16,17-tetradecahydro-1H-cyclopenta[a]phenanthren-3-ol] the IC50 was < 250 nM.
C[C@H](CCC(=O)N1CC[C@H](NC(=O)N(C)C)C1)[C@H]1CC[C@H]2[C@@H]3CC=C4C[C@@H](O)CC[C@]4(C)[C@H]3CC[C@]12C [Example 534, 3-((S)-1-((R)-4-((3S,8S,9S,10R,13R,14S,17R)-3-hydroxy-10,13-dimethyl-2,3,4,7,8,9,10,11,12,13,14,15,16,17-tetradecahydro-1H-cyclopenta[a]phenanthren-17-yl)pentanoyl)pyrrolidin-3-yl)-1,1-dimethylurea] was tested, and the IC50 was < 250 nM.
Work on C[C@H](CCC(=O)N1CC[C@H](Nc2ccncc2)C1)[C@H]1CC[C@H]2[C@@H]3CC=C4C[C@@H](O)CC[C@]4(C)[C@H]3CC[C@]12C [Example 530, (4R)-4-[(1R,3aS,3bS,7S,9aR,9bS,11aR)-7-hydroxy-9a,11a-dimethyl-1H,2H,3H,3aH,3bH,4H,6H,7H,8H,9H,9aH,9bH,10H,11H,11aH-cyclopenta[a]phenanthren-1-yl]-1-[(3S)-3-[(pyridin-4-yl)amino]pyrrolidin-1-yl]pentan-1-one] yielded an IC50 of 250 to 1000 nM.
In the case of C[C@H](CCC(=O)N1CCN(c2ncccn2)CC1)[C@H]1CC[C@H]2[C@@H]3CC=C4C[C@@H](O)CC[C@]4(C)[C@H]3CC[C@]12C [Example 397, (R)-4-((3S,8S,9S,10R,13R,14S,17R)-3-hydroxy-10,13-dimethyl-2,3,4,7,8,9,10,11,12,13,14,15,16,17-tetradecahydro-1H-cyclopenta[a]phenanthren-17-yl)-1-(4-(pyrimidin-2-yl)piperazin-1-yl)pentan-1-one], the IC50 is reported as < 250 nM.
Work on CC(=O)N1CCC(C(=O)N(C)CC[C@@H](C)[C@H]2CC[C@H]3[C@@H]4CC=C5C[C@@H](O)CC[C@]5(C)[C@H]4CC[C@]23C)CC1 [Example 408, 1-acetyl-N—((R)-3-((3S,8S,9S,10R,13R,14S,17R)-3-hydroxy-10,13-dimethyl-2,3,4,7,8,9,10,11,12,13,14,15,16,17-tetradecahydro-1H-cyclopenta[a]phenanthren-17-yl)butyl)-N-methylpiperidine-4-carboxamide] yielded an IC50 of 250 to 1000 nM.
CC(=N)N1CCN(C(=O)CC[C@@H](C)[C@H]2CC[C@H]3[C@@H]4CC=C5C[C@@H](O)CC[C@]5(C)[C@H]4CC[C@]23C)CC1 [Example 459, (R)-4-((3S,8S,9S,10R,13R,14S,17R)-3-hydroxy-10,13-dimethyl-2,3,4,7,8,9,10,11,12,13,14,15,16,17-tetradecahydro-1H-cyclopenta[a]phenanthren-17-yl)-1-(4-(1-iminoethyl)piperazin-1-yl)pentan-1-one] was tested, and the IC50 was 250 to 1000 nM.
In the case of C[C@H](CCC(=O)N1CCC(C)(CN2CCOC(C)(C)C2=O)CC1)[C@H]1CC[C@H]2[C@@H]3CC=C4C[C@@H](O)CC[C@]4(C)[C@H]3CC[C@]12C [Example 523, 4-((1-((R)-4-((3S,8S,9S,10R,13R,14S,17R)-3-hydroxy-10,13-dimethyl-2,3,4,7,8,9,10,11,12,13,14,15,16,17-tetradecahydro-1H-cyclopenta[a]phenanthren-17-yl)pentanoyl)-4-methylpiperidin-4-yl)methyl)-2,2-dimethylmorpholin-3-one], the IC50 is reported as < 250 nM.
